Experimental findings from US20020111360A1, “Quinazoline formulations and therapeutic use thereof” (PARKER HUGHES INSTITUTE, priority 1999, published 2002) are described below.

Series [1] can be described thus: Solubility of WHI-P131 free base and chloride salt in various liquids. The series is classed as physicochemical. On the procedure: The solubility of WHI-P131 free base was measured in water, propylene glycol, polyethylene glycols (PEGs), ethanol, and triglycerides. The solubility of WHI-P131 is very poor in water. It was about 35 times more soluble in C8-C10 medium chain triglyceride (Captex 300) than in water. It was much more soluble in ethanol and hydrophilic cosolvents such as propylene glycol and PEGs.
Parallel solubility measurements were also carried out using WHI-P131 chloride salt. […] In contrast, the solubility of WHI-P131 chloride decreased drastically in all other liquids. […] This fact underscores the importance of knowing the solubility profile of both the free base and salt forms of an ionizable compound when making choices of its delivery vehicles.

The nature of series [2]: Solubilization of WHI-P131 in water-cosolvent mixtures and micellar solutions. The note with it: for Solubility: aqueous with cosolvent or surfactant or cyclodextrin. The series is classed as physicochemical. On the procedure: To further determine the effect of cosolvents on the solubility behavior of WHI-P131, the solubility of WHI-P131 chloride salt was carried out in binary mixtures of water-cosolvents. Solvents including ethanol, propylene glycol, and PEGs are used in several injectable formulations, and were considered here as possible vehicles for WHI-P131. […] However, at PEG concentrations greater than 70%, there was a large difference between the solubility behavior of WHI-P131 in water-PEG300 and water-PEG200 mixtures. For PEG300, the solubility continued to increase linearly with increasing PEG concentration, whereas for PEG200, a large increase in slopes occurred near 100% PEG200. Since the solubility-PEG300 concentration curve is linear over the entire range of water-PEG300 mixtures, WHI-P131 solubilized in these mixtures at concentrations below its saturation point can be used as vehicles for this compound, since their dilution will not result in drug precipitation. […] Therefore, PEG300 is more appropriate for use as a cosolvent vehicle in the formulations of WHI-P131.
Micellar solutions containing PEGylated phosphatidylethanolamines were exceptionally effective in enhancing the solubilization of WHI-P131. […] Micellar solutions using purified soya lecithin (Phospholipon 90G) were feasible when an equal or higher amount of a nonionic surfactant (such as Cremophor EL for example) was also present. With PEGylated phospholipids, the presence of Cremophor EL was not necessary to form micellar solutions. In addition, an anionic PEGylated phosphatidylethanolamine seemed to be a better solubilizer for WHI-P131 than Phospholipon (mostly phosphotidylcholine). The enhanced solubilization observed with micellar solutions was apparently due to the charge interaction between the cationic WHI-P131 and anionic PEGylated phosphatidylethanolamine.
To determine the solubilization enhancement by different types of surfactants in a more quantitative manner, solubility-surfactant concentration curves were plotted. FIG. 2 depicts the amount of solubilized WHI-P131 chloride in a solution containing 20% of PEG300, and an increasing amount of PEG2000-DPPE. […] At low surfactant concentrations (below the CMC), the drug solubilization seems to remain unchanged, then increases linearily with surfactant concentration at higher PEG2000-DPPE concentration. […] In Table 8, the slopes of the linear portions of the plot for a series of nonionic surfactants and cosolvents were used to calculate the solubilization enhancement per unit surfactant or cosolvent concentration.
The solubilization enhancement, as represented by the amount of solubilized WHI-P131 (in milligram) per gram of surfactant, are shown in Table 8 to vary with the type of surfactants used. For the three PEGylated phosphatidylethanolamines, the solubilization enhancement depended on the hydrophobic chain length and polyoxyethylene number of the PEGylated phospholipids. […] Also shown in Table 8 for comparison purposes are the solubilization enhancements produced by the use of cosolvents.

The nature of series [3]: Solubilization of WHI-P131 in microemulsions. The series is classed as physicochemical. The note with it: microemulsion formulation vs free base in water.
From the text: A series of ternary phase diagrams were constructed at room temperature, and several microemulsions within the single phase microemulsion region were examined for their capacity to solubilize WHI-P131. […] In this phase diagram, it can be seen that microemulsions containing up to 30% of Captex 300 were possible. These microemulsions were transparent and tolerated dilution very well when mixed with aqueous phases. In WHI-P131-containing microemulsions, the drug was first solubilized in the microemulsions chosen from the one phase region of the phase diagram with mild heating, followed by dilution with water or buffer solution at room temperature.
The microemulsion composition ME1 depicted in Table 9 was used in pharmacokinetic studies and biological activity assays. This microemulsion was prepared by first solubilizing WHI-P131 in composition A in the ternary phase diagram, followed by a dilution with water (1:9). […] ME2 was a microemulsion composition obtained from a separate phase diagram not shown. […] These microemulsions can readily be filtered through 0.2 μm filter, and stored at room temperature.

Structures can show the parent of a compound that is named as a salt.

Turning to `COc1cc2ncnc(Nc3ccc(O)c(F)c3)c2cc1OC` (as salt: salt) [P-369, 4-(4′Hydroxyl-3′-fluorophenyl)-amino-6,7-dimethoxyquinazoline], the melting point (in general, the temperature, or range, at which the solid turns liquid) was 268 to 270 °C.
In turn, `COc1cc2ncnc(Nc3cc(F)c(O)c(F)c3)c2cc1OC` (as salt: salt) [P-408, 4-(4′-Hydroxyl-3′,5′-difluorophenyl)-amino-6,7-dimethoxy-quinazoline] displayed a melting point of 228 to 230 °C.
For the compound `COc1cc2ncnc(Nc3ccc(Cl)c4ccccc34)c2cc1OC` (as salt: salt) [P-415, 4-(4′-Chloronaphthy-1′)-amino-6,7-dimethoxyquinazoline], the melting point was 245 to 248 °C.
Compound `COc1cc2ncnc(Nc3ccc(Br)cc3C(=O)O)c2cc1OC` [P-88, 4-(4′-Bromo-2′-caboxylphenyl)-amino-6,7-dimethoxyquinazoline] had a melting point greater than 300 °C.
On the same count and under the same terms, the same measure for `COc1cc2ncnc(Nc3ncccc3O)c2cc1OC` [P-150, 4-[(3′-Hydroxylpyridine)-2′]-amino-6,7-dimethoxyquinazoline]: 185 to 187 °C.
As for `COc1cc2ncnc(Nc3ccc(O)c(C(=O)O)c3)c2cc1OC` [P-182, 4-(4′-Hydroxyl-3′-Carboxyphenyl)-amino-6,7-dimethoxyquinazoline], the melting point is greater than 300 °C.
Still for that read-out and setting: for `COc1cc2ncnc(Nc3cc(Cl)c(O)c(Cl)c3)c2cc1OC` [P-189, 4-(4′-Hydroxyl-3′,5′-dichlorophenyl)amino-6,7-dimethoxyquinazoline] the value was 293 to 295 °C; for `COc1cc2ncnc(Nc3ccccc3CO)c2cc1OC` [P-191, 4-(6′-Hydroxymethylphenyl)-amino-6,7-dimethosyquinazoline], 215 to 218 °C; for `COc1cc2ncnc(Nc3ccc(O)cc3O)c2cc1OC` [P-192, 4-(2′,4′-Dihydroxyphenyl)-amino-6,7-dimethoxyquinazoline], 240 °C (dec.).
Still for that read-out and setting: the same measure for `COc1cc2ncnc(Nc3ccc(C)c(Br)c3Br)c2cc1OC` [P-210, 4-(2′,3′-Dibromo-4′-methylphenyl)-amino-6,7-dimethoxyquinazoline]: 233 to 236 °C; for `COc1cc2ncnc(Nc3cc(Br)c(C)c(Br)c3)c2cc1OC` [P-212, 4-(3′,5′-Dibromo-4′-methylphenyl)-amino-6,7-dimethoxyquinazoline]: 275 to 279 °C.
On the same count and under the same terms, for `COc1cc2ncnc(Nc3cnc(O)nc3O)c2cc1OC` [P-215, 4-(2′,4′-Dihydroxyl-1′,3′-diazine-5′)-amino-6,7-dime-thoxyquinazoline] the value was greater than 300 °C; for `COc1cc2ncnc(Nc3c(Br)cc(Br)cc3Br)c2cc1OC` [P-222, 4-(2′,4′,6′-Tribromophenyl)amino-6,7-dimethoxyquinazoline], 250 to 255 °C.
Regarding `COc1cc2ncnc(Nc3ccc(C(F)(F)F)cc3)c2cc1OC` [P-223, 4-(4′-Trifluoromethylphenyl)-amino-6,7-dimethoxyquinazoline], the melting point lay within 243 to 245 °C.
On the same count and under the same terms, the same measure for `COc1cc2ncnc(Nc3ccccc3C(F)(F)F)c2cc1OC` [P-228, 4-(2′-Trifluoromethylphenyl)-amino-6,7-dimethoxyquinazoline]: 242 to 245 °C; for `COc1cc2ncnc(Nc3c(Br)cc(C)cc3Br)c2cc1OC` [P-241, 4-(2′,6′-Dibromo-4′-methylphenyl)-amino-6,7-dimethoxyquinazoline]: 235 to 237 °C.
`COc1cc2ncnc(Nc3c(Br)cccc3Br)c2cc1OC` [P-262, 4-(2′,6′-Dibromophenyl)-amino-6,7-dimethoxyquinazoline] showed a melting point of 243 to 246 °C.
Consider `COc1cc2ncnc(Nc3ccc(Br)cc3Br)c2cc1OC` [P-263, 4-(2′,4′-Dibromophenyl)-amino-6,7-dimethoxyquinazoline], for which the melting point fell in the range of 257 to 262 °C.
Same read-out and setting: the same measure for `COc1cc2ncnc(Nc3ccc(CCO)cc3)c2cc1OC` [P-265, 4-[4′-(2″-Hydroxylethylphenyl)]-amino-6,7-dimethoxyqui-nazoline]: 235 to 240 °C; for `COc1cc2ncnc(Nc3cccc(C(C)O)c3)c2cc1OC` (stereo not drawn) [P-276, 4-[3′-(1″-Hydroxyethyl)]-amino-6,7-dimethoxyquinazoline]: 215 to 218 °C.
Consider `COc1cc2ncnc(Nc3cc(-c4ccccc4)c(O)c(-c4ccccc4)c3)c2cc1OC` [P-277, 4-(4′-Hydroxy-3′,5′-diphenylphenyl)-amino-6,7-dime-hoxyquinazoline], for which the melting point was in the range of 255 to 257 °C.
As to `COc1cc2ncnc(Nc3ccc(O)cc3)c2cc1OC` [WHI-P131 Chloride salt, 4-(4′-Hydroxylphenyl)-amino-6,7-dimethoxyquinazoline], the Solubility amounted to 0.012 ± 0.002 mg/mL in series [1] (Captex 300); 0.631 ± 0.007 mg/mL in series [1] (Ethanol); 25.12 ± 0.72 mg/mL in series [1] (PEG200); 10.10 ± 3.60 mg/mL in series [1] (PEG300); 1.61 ± 0.09 mg/mL in series [1] (Propylene glycol); 1.24 ± 0.09 mg/mL in series [1] (Water). In addition, the Solubility in series [1] (Water, listed as WHI-P131 salt) was 1.2 mg/mL; in series [2] (20% PEG300 in water, chloride salt, 20% PEG300, no surfactant, read-out: Solubility in 20% PEG300), 2380 µg/mL.
Regarding `COc1cc2ncnc(Nc3ccc(O)cc3)c2cc1OC` [WHI-P131 Free base, 4-(4′-Hydroxylphenyl)-amino-6,7-dimethoxyquinazoline], the Solubility in series [1] (Captex 300) was 0.88 ± 0.08 mg/mL; in series [1] (Ethanol), 18.6 ± 0.5 mg/mL; in series [1] (PEG200) it was greater than 100 mg/mL; in series [1] (PEG300) it was greater than 185 mg/mL; in series [1] (Propylene glycol), 19.5 ± 0.7 mg/mL; in series [1] (Water), 0.025 mg/mL. Moreover, the Solubility in series [1] (ethanol) is 1.86%; in series [1] (polyethylene glycols) it was “greater than 10%”; in series [1] (propylene glycol), 1.95%.
As for `COc1cc2ncnc(Nc3ccc(O)cc3)c2cc1OC` [WHI-P131, 4-(4′-Hydroxylphenyl)-amino-6,7-dimethoxyquinazoline], the “Solubility in C8-C10 medium chain triglyceride (Captex 300) relative to water” value in series [1] (Captex 300 vs water) was “about 35 times”. Besides, the Solubility entry is “very poor” in series [1] (Water) and 4700 µg/mL in series [2] (20% PEG300 plus 3% PEG2000-DPPE micellar solution, chloride salt, 20% PEG300 plus 3% PEG2000-DPPE, read-out: Drug solubilization in cosolvent/micellar vehicle). In addition, the “Solubilized WHI-P131 (mg) per gram of surfactant or solvent” value in series [2] (PEG200, Cosolvent) amounted to 5.3 mg per gram; in series [2] (PEG300, Cosolvent) it was 5.8 mg per gram; in series [2] (PEG400, Cosolvent), 6.2 mg per gram; in series [2] (PEG2000-PE (14:0), Micellar solution), 76.6 mg per gram; in series [2] (PEG2000-PE (16:0), Micellar solution), 92.0 mg per gram; in series [2] (PEG5000-PE (18:0), Micellar solution) it was 37.5 mg per gram. The “Solubilized WHI-P131 (mg) per gram of surfactant or solvent” value in series [2] (Pluronic F-68, Micellar solution) turned out to be 6.1 mg per gram. The “Solubility in 20% PEG300” value in series [2] (chloride salt, 20% PEG300, no surfactant) was 2200 µg/mL. The Total solubilization enhancement in series [2] (cosolvent/micellar solution vs free base in water) came to 190 fold; in series [3] it was 110 fold.
